Assay results reported in patent US20040024024A1, “Aromatic sulfone hydroxamates and their use as protease inhibitors” (priority 2001, published 2004).

Tests used:
Experiment in all cases: In vitro MMP inhibition, IC50 determination (fluorogenic substrate I)
Format in all cases: biochemical
[1] = molecular target: T1, Human recombinant MMP-13 (Homo sapiens, UniProt P45452)
T1 construct: made in house; host or cells: baculovirus / insect cells
Summary of the method: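 Fluorescence at 415 nm (excitation 328 nm) reports Gly-Leu cleavage of 4 μM quenched methoxycoumarin peptide substrate I. Human recombinant MMP-13, activated by trypsin or APMA, was incubated at room temperature with varied inhibitor concentrations in pH 7.5 Tris/NaCl/CaCl2 buffer; IC50 derived from reduced fluorescence.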

[2] = molecular target: T2, Human recombinant MMP-1 (Homo sapiens, UniProt P03956)
T2 construct: made in house; host or cells: MMP-1-transfected HT-1080 cells (spent media)
T2 sequence (P03956 100-469): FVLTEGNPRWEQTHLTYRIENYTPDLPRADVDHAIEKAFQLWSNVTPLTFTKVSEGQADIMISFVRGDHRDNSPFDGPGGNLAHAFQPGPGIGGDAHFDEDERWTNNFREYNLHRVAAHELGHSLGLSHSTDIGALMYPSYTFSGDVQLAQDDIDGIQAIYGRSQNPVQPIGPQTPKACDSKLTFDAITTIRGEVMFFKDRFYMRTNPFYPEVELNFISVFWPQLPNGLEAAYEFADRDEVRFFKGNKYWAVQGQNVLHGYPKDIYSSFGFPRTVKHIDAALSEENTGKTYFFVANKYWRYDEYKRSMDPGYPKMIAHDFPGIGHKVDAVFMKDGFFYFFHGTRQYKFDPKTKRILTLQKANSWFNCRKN
Description: (§1) Several hydroxamates and salts thereof were analyzed in in vitro assays to determine their ability to inhibit the MMP cleavage of peptide substrates. Inhibition (Ki) and IC50 constants were calculated from the assayed hydroxamate-MMP interactions.
(§2) Human recombinant MMP-1, MMP-2, MMP-9, MMP-13, and MMP-14 were used in this assay. All enzymes were prepared in Assignee's laboratories following usual laboratory procedures. Protocols for the preparation and use of these enzymes are available in the scientific literature. See, e.g., Enzyme Nomenclature (Academic Press, San Diego, Calif., 1992) (and the citations therein). See also, Frije et al., J. Biol. Chem., 26(24), 16766-73 (1994).
The MMP-1 proenzyme was purified from the spent media of MMP-1-transfected HT-1080 cells provided by Dr. Harold Welgus of Washington University (St. Louis, Mo.). The protein was purified on a zinc chelating column.
(§3) All MMPs were activated using 4-aminophenylmercuric acetate (“APMA”, Sigma Chemical, St. Louis, Mo.) or trypsin. MMP-9 also was activated using human recombinant MMP-3 (purified in Assignee's laboratory following standard cloning and purification techniques).
(§4) Two fluorogenic, methoxycoumarin-containing polypeptide substrates were used in the MMP inhibition assays:
(§5) MCA-ProLeuGlyLeuDpaAlaArgNH2 (I)
(§6) Here, “Dpa” is 3-(2,4-dinitrophenyl)-L-2,3-diaminopropionyl group, and “MCA” is 7-methoxycoumarin-4-yl acetyl. Substrate (I) was purchased from Baychem (Redwood City, Calif.), and substrate II was prepared Assignee's laboratory. Substrate I was used in the IC50 determination assays, while substrate II was used in the Ki determination assays. In the absence of MMP inhibitory activity, either substrate is cleaved at the Gly-Leu peptide bond. This cleavage separates the highly fluorogenic peptide from the 2,4-dinitrophenyl quencher, thus resulting in increase of fluorescent intensity.
(§7) The stock solutions of the assayed hydroxamates (or salts thereof) were prepared in 1% dimethyl sulfoxide (DMSO). These stock solutions were diluted in Buffer A (100 mM Tris-HCl, 100 mM NaCl, 10 mM CaCl2, 0.05% polyoxyethylene 23 lauryl ether, pH 7.5) to obtain solutions with different hydroxamate concentrations, i.e., assay solutions with different concentrations of the assayed MMP inhibitory compound. The experiment controls contained the same amount of Buffer A/DMSO as the assayed sample, but contained no hydroxamate (or salt thereof).
(§8) The assays from which the IC50 determinations were made were performed as follows. The MMPs were activated with either trypsin or APMA (4-aminophenylmercuric acetate, Sigma Chemical, St. Louis, Mo.). The assayed hydroxamate samples were, incubated in Microfluorrm White Plates (Dynatech, Chantilly, VA) and analyzed on a Perkin Elmer L550 plate reader (Norwalk, Conn.). The excitation wavelength was 328 nm, and the emission wavelength—415 nm. All samples (assayed hydroxamates and controls) were incubated in separate plates at room temperature in the presence of 4 μM of MMP substrate (I). As stated in the previous paragraph, samples containing varying concentrations of the same assayed hydroxamate were prepared. Inhibition was measured as a reduction in fluorescent intensity as a function of MMP inhibitor concentration.

[3] = molecular target: T3, Human recombinant MMP-2 (Homo sapiens, UniProt P08253)
T3 construct: made in house; host or cells: MMP-2-transfected p2AHT2 cells
T3 sequence (P08253 110-660): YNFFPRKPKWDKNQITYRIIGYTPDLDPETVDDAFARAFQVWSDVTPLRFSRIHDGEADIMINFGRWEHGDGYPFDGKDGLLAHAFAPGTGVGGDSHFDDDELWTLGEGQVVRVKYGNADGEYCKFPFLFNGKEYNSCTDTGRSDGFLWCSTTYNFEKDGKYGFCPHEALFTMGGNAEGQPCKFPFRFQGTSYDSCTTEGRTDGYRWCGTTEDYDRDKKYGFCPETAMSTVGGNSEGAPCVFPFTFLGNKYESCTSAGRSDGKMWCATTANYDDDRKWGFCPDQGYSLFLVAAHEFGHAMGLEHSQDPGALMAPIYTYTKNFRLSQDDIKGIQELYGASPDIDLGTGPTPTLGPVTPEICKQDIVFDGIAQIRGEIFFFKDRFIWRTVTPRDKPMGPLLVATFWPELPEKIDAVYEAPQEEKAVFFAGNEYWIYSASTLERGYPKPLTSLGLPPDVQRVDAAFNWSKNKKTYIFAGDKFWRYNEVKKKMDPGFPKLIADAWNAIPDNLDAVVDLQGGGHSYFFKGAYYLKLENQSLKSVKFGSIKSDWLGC
Summary of the method: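 APMA- or trypsin-activated recombinant MMP-2 was incubated at room temperature with serial inhibitor dilutions in Tris buffer pH 7.5 (100 mM NaCl, 10 mM CaCl2, 0.05% Brij), with DMSO from 1% stocks, and 4 μM substrate I. Cleavage was read by fluorescence at 328/415 nm; IC50 was taken from the loss of fluorescence versus inhibitor concentration.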

[4] = molecular target: T4, Human recombinant MMP-14 (Homo sapiens, UniProt P50281)
T4 construct: The catalytic domain enzyme was expressed in E. coli inclusion bodies, solubilized in urea; made in house
Description: as §1, §2
The MMP-14 full length cDNA was provided by Dr. Gregory Goldberg of Washington University (St. Louis, Mo.). The catalytic domain enzyme was expressed in E. coli inclusion bodies, solubilized in urea, purified on a preparative […] reverse phase HPLC column, and then refolded in the presence of zinc acetate and purified for use.
as §3, §4, §5, §6, §7, §8

[5] = molecular target: T5, Human recombinant MMP-9 (Homo sapiens, UniProt P14780)
T5 construct: made in house; host or cells: MMP-9-transfected HT1080 cells (spent media)
Description: as §1, §2
The MMP-9 proenzyme was purified by gelatin Sepharose chromatography from spent media of MMP-9-transfected HT1080 cells provided by Dr. Howard Welgus of Washington University (St. Louis, Mo.).
as §3, §4, §5, §6, §7, §8

[6] = value outside parentheses (Ki in parenthesis)

T5 sequence (P14780 107-707 limits assumed): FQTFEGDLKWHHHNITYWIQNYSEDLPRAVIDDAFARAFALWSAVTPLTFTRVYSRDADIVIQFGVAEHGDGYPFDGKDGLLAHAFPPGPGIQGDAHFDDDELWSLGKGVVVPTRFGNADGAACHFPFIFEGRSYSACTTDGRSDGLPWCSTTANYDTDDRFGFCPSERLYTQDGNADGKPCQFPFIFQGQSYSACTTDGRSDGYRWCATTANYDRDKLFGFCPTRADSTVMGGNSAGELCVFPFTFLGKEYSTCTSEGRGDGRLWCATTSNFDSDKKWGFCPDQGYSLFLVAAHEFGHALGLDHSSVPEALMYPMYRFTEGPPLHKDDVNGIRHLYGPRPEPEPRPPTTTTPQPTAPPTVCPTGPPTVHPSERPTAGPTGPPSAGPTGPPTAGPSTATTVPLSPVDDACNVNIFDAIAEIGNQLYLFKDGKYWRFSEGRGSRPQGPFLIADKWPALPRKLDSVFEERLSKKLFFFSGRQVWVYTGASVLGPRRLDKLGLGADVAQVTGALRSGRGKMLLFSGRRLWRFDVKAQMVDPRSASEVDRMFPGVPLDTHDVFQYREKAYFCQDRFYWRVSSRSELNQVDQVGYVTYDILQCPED

Structure (SMILES) | IC50 [1, 6] | IC50 [2, 6] | IC50 [3, 6] | also measured
Cc1cc(C(=O)CCCCOc2ccc(S(=O)(=O)C3(C(=O)NO)CCOCC3)cc2)ccc1OC(C)C [Example 340] | 0.0019 µM | > 10 µM | 0.253 µM | IC50 [4, 6]: > 10 µM; IC50 [5, 6]: 5.59 µM
CC(C)=CCCC(C)CCOc1ccc(S(=O)(=O)C2(C(=O)NO)CCOCC2)cc1 (centres unmarked) [Example 470] | 0.003 µM | > 10 µM | 0.007 µM | 
CC(C)(COc1ccc(S(=O)(=O)C2(C(=O)NO)CCOCC2)cc1)CSc1ccc(OC(F)(F)F)cc1 [Example 435] | 0.5 µM | > 10 µM | > 10 µM | 
CC(CCOc1ccc(S(=O)(=O)C2(C(=O)NO)CCOCC2)cc1)CC(C)(C)C (centres unmarked) [Example 469] | 0.06 µM | > 10 µM | 0.145 µM | 
CC(C)=CC1C(COc2ccc(S(=O)(=O)C3(C(=O)NO)CCOCC3)cc2)C1(C)C (centres unmarked) [Example 471] | 0.12 µM | > 10 µM | 0.27 µM | 
O=C1CN(c2ccccc2)C(=O)N1CCCOc1ccc(S(=O)(=O)C2(C(=O)NO)CCOCC2)cc1 [Example 174] |  |  |  | IC50 ([1]; value outside parenthesis): 0.0052 µM; IC50 ([2]; value outside parenthesis): > 10 µM; IC50 ([4]; value outside parenthesis): > 10 µM; IC50 ([5]; value outside parenthesis): 4.02 µM
CC(=O)c1ccc(OCCOc2ccc(S(=O)(=O)C3(C(=O)NO)CCOCC3)cc2)cc1 [Example 659] |  |  |  | IC50 ([1]; value outside parentheses): 0.00041 µM; IC50 ([2]; value outside parentheses): > 10 µM; IC50 ([3]; value outside parentheses): 0.00391 µM; IC50 ([5]; value outside parentheses): 0.0471 µM
O=C(Cc1cccs1)NCCOc1ccc(S(=O)(=O)C2(C(=O)NO)CCOCC2)cc1 [Example 617] |  |  |  | IC50 ([1]; value outside parentheses): 0.0006 µM; IC50 ([3]; value outside parentheses): 0.0008 µM; IC50 ([4]; value outside parentheses): 4.13 µM; IC50 ([5]; value outside parentheses): 0.413 µM
O=C(NO)C1(S(=O)(=O)c2ccc(OCCOCc3cccnc3)cc2)CCOCC1 [Example 518] |  |  |  | IC50 ([2]; value outside parentheses): > 10 µM; IC50 ([3]; value outside parentheses): 0.0264 µM; IC50 ([4]; value outside parentheses): 0.967 µM; IC50 ([5]; value outside parentheses): 0.115 µM
COC(=O)CCCN(C)c1ccc(S(=O)(=O)C2(C(=O)NO)CCOCC2)cc1 [Example 458] | 1.4 µM | > 10 µM | 3.5 µM | 
O=C1CN(c2ccccc2)C(=O)N1CCCOc1ccc(S(=O)(=O)C2(C(=O)NO)CCOCC2)cc1 [Example 263] |  |  |  | IC50 ([1]; value outside parenthesis): 0.0038 µM; IC50 ([5]; value outside parenthesis): 3.27 µM
CN(CCCC(=O)O)c1ccc(S(=O)(=O)C2(C(=O)NO)CCOCC2)cc1 [Example 457] | > 10 µM | > 10 µM | > 10 µM | 
CCCCCN(C)c1ccc(S(=O)(=O)C2(C(=O)NO)CCOCC2)cc1 [Example 459] | 0.67 µM | > 10 µM | 0.7 µM | 
CC(C)OCCCNc1ccc(S(=O)(=O)C2(C(=O)NO)CCOCC2)cc1 [Example 461] | 0.59 µM | > 10 µM | 2.2 µM | 
COc1ccc(SCCCCOc2ccc(S(=O)(=O)C3(C(=O)NO)CCOCC3)cc2)cc1 [Example 429] | 0.0005 µM |  | 0.0065 µM | IC50 [4, 6]: > 10 µM; IC50 [5, 6]: > 10 µM
CC1CCCCC1COc1ccc(S(=O)(=O)C2(C(=O)NO)CCOCC2)cc1 (centres unmarked) [Example 477] | 0.002 µM | 1.3 µM | 0.0015 µM | 
CN(C)c1ccc(C(=O)CCCCOc2ccc(S(=O)(=O)C3(C(=O)NO)CCN(C4CC4)CC3)cc2)cc1 [Example 267] |  |  |  | IC50 ([2]; value outside parenthesis): > 10 µM; IC50 ([3]; value outside parenthesis): 0.0185 µM; IC50 ([4]; value outside parenthesis): > 10 µM; IC50 ([5]; value outside parenthesis): 0.107 µM
COC(C)(C)CCCC(C)CCOc1ccc(S(=O)(=O)C2(C(=O)NO)CCOCC2)cc1 (centres unmarked) [Example 474] | 0.003 µM | > 10 µM | 0.012 µM | 
O=C(NO)C1(S(=O)(=O)c2ccc(OCCCOCc3cc(C(F)(F)F)cc(C(F)(F)F)c3)cc2)CCOCC1 [Example 454] | 0.027 µM | > 10 µM | 0.165 µM | 
COc1cccc(SCC(C)(C)COc2ccc(S(=O)(=O)C3(C(=O)NO)CCOCC3)cc2)c1 [Example 436] | 0.1 µM | > 10 µM | 1.5 µM | 
CC(C)(CCc1ccccc1)Oc1ccc(S(=O)(=O)C2(C(=O)NO)CCOCC2)cc1 [Example 468] | 1.5 µM | > 10 µM | 2.5 µM | 
O=C(NO)C1(S(=O)(=O)c2ccc(OCCOCc3cccnc3)cc2)CCOCC1 [Example 517] |  |  |  | IC50 ([2]; value outside parentheses): > 10 µM; IC50 ([3]; value outside parentheses): 0.0347 µM; IC50 ([4]; value outside parentheses): > 10 µM; IC50 ([5]; value outside parentheses): 0.138 µM
O=C(NCCOc1ccc(S(=O)(=O)C2(C(=O)NO)CCOCC2)cc1)c1ccc(-c2cccc(C(F)(F)F)c2)o1 [Example 610] |  |  |  | IC50 ([1]; value outside parentheses): 0.0041 µM; IC50 ([3]; value outside parentheses): 0.488 µM
COCCN1CCC(C(=O)NO)(S(=O)(=O)c2ccc(OCCCn3nc(C(F)(F)F)cc3-c3ccc(OC)cc3)cc2)CC1 [Example 198] |  |  |  | IC50 ([1]; value outside parenthesis): 0.835 µM; IC50 ([3]; value outside parenthesis): 4.53 µM
O=C(NCCCOc1ccc(S(=O)(=O)C2(C(=O)NO)CCN(C3CC3)CC2)cc1)C1C2CC3CC(C2)CC1C3 (centres unmarked) [Example 643] |  |  |  | IC50 ([1]; value outside parentheses): 0.0114 µM; IC50 ([3]; value outside parentheses): 1.13 µM
O=C(NO)C1(S(=O)(=O)c2ccc(OCCCS(=O)(=O)N3CCOCC3)cc2)CCOCC1 [Example 315] | 0.0127 µM |  | 0.0128 µM | 
O=C(NCCOc1ccc(S(=O)(=O)C2(C(=O)NO)CCOCC2)cc1)c1ccc(-c2cc(C(F)(F)F)ccc2Cl)o1 [Example 611] |  |  |  | IC50 ([1]; value outside parentheses): 0.0136 µM; IC50 ([3]; value outside parentheses): 0.733 µM
COc1cc2c(cc1OC)CN(C(=O)NCCCOc1ccc(S(=O)(=O)C3(C(=O)NO)CCOCC3)cc1)CC2 [Example 496] |  |  |  | IC50 ([1]; value outside parentheses): 0.0084 µM; IC50 ([3]; value outside parentheses): 0.242 µM
